Target: T1, human neutrophil elastase (HNE) (Homo sapiens, UniProt P08246)
T1 construct: purchased Sigma E8140
T1 sequence (P08246 30-247 limits assumed): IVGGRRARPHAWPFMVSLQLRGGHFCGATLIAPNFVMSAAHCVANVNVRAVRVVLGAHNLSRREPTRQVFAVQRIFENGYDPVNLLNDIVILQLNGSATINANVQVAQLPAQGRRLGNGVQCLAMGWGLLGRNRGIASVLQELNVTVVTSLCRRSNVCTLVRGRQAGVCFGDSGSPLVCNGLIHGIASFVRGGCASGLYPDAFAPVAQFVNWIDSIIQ
Assay: HNE enzyme activity assay (fluorogenic peptide substrate MeOSuc-Ala-Ala-Pro-Val-AMC)
Assay type: biochemical
Conditions: human leukocyte elastase 0.00072 U/mL, substrate 100 μM, 25° C., 30 minutes, pH 7.5; at least two separate experiments; read-out: FINE inhibition (HNE enzyme inhibition, IC50 values)
Protocol: Compounds of this invention were tested for potency in a human neutrophil elastase (HNE) enzyme activity assay.
Assays were performed in 96-well plates in a total assay volume of 100 μL. The final concentration of elastase enzyme (human leukocyte elastase, Sigma E8140) was 0.00072 U/mL. The peptide substrate (MeOSuc-Ala-Ala-Pro-Val-AMC, Calbiochem #324740) was used at a final concentration of 100 μM. The final concentration of DMSO was 1% in the assay buffer (0.05M Tris.HCl, 0.1M NaCl, 0.1M CaCl2, 0.0005% brij-35, pH 7.5). The enzymatic reaction was started by addition of the enzyme and incubated at 25° C. for 30 minutes. After incubation, the reaction was stopped by addition of soybean trypsin inhibitor (Sigma T9003) at a final concentration of 50 μg/well. Fluorescence was measured using a Molecular Devices fluorescence plate reader using 380 nm excitation and 460 nm emission wavelengths.
A dose response to each compound was performed and the effect of compound in each experiment was expressed as a percentage inhibition of the control enzyme fluorescence. Dose response curves were plotted and compound potency (IC50) was determined. Compounds were tested in at least two separate experiments.

Row | IC50 [nM] | Compound
1 | 1 to 10 | Cc1c(-c2ccnn2-c2ccc(C#N)cc2)n(C(=O)NCc2ccccn2)c(=O)n1-c1cccc(C(F)(F)F)c1 [Example 49, 5-[2-(4-Cyano-phenyl)-2H-pyrazol-3-yl]-4-methyl-2-oxo-3-(3-trifluoromethyl-phenyl)-2,3-dihydro-imidazole-1-carboxylic acid (pyridin-2-ylmethyl)-amide]
2 | 1 to 10 | Cc1c(-c2ccnn2-c2ccc(C#N)cc2)n(C(=O)NCc2cccnc2)c(=O)n1-c1cccc(C(F)(F)F)c1 [Example 50, 5-[2-(4-Cyano-phenyl)-2H-pyrazol-3-yl]-4-methyl-2-oxo-3-(3-trifluoromethyl-phenyl)-2,3-dihydro-imidazole-1-carboxylic acid (pyridin-3-ylmethyl)-amide]
3 | < 1 | Cc1c(-c2ccnn2-c2ccc(C#N)cc2)n(C(=O)NCc2ccncc2)c(=O)n1-c1cccc(C(F)(F)F)c1 [Example 51, 5-[2-(4-Cyano-phenyl)-2H-pyrazol-3-yl]-4-methyl-2-oxo-3-(3-trifluoromethyl-phenyl)-2,3-dihydro-imidazole-1-carboxylic acid (pyridin-4-ylmethyl)-amide]
4 | 1 to 10 | Cc1c(-c2ccnn2-c2ccc(C#N)cc2)n(C(=O)NCc2cnccn2)c(=O)n1-c1cccc(C(F)(F)F)c1 [Example 52, 5-[2-(4-Cyano-phenyl)-2H-pyrazol-3-yl]-4-methyl-2-oxo-3-(3-trifluoromethyl-phenyl)-2,3-dihydro-imidazole-1-carboxylic acid (pyrazin-2-ylmethyl)-amide]
5 | < 1 | Cc1c(-c2ccnn2-c2ccc(C#N)cc2)n(C(=O)N[C@@H]2CCC[C@H]2O)c(=O)n1-c1cccc(C(F)(F)F)c1 [Example 53, 5-[2-(4-Cyano-phenyl)-2H-pyrazol-3-yl]-4-methyl-2-oxo-3-(3-trifluoromethyl-phenyl)-2,3-dihydro-imidazole-1-carboxylic acid ((1R,2R)-2-hydroxy-cyclopentyl)-amide]
6 | 1 to 10 | Cc1c(-c2ccnn2-c2ccc(C#N)cc2)n(C(=O)NCC2CCN(C)CC2)c(=O)n1-c1cccc(C(F)(F)F)c1 [Example 54, 5-[2-(4-Cyano-phenyl)-2H-pyrazol-3-yl]-4-methyl-2-oxo-3-(3-trifluoromethyl-phenyl)-2,3-dihydro-imidazole-1-carboxylic acid (1-methyl-piperidin-4-ylmethyl)-amide]
7 | > 50 | Cc1c(-c2ccnn2-c2ccc(C#N)cc2S(C)(=O)=O)[nH]c(=O)n1-c1cccc(C(F)(F)F)c1 [Example 55, 3-Methanesulfonyl-4-{5-[5-methyl-2-oxo-1-(3-trifluoromethyl-phenyl)-2,3-dihydro-1H-imidazol-4-yl]-pyrazol-1-yl}-benzonitrile]
8 | 1 to 10 | Cc1c(-c2ccnn2-c2ccc(C#N)cc2Br)n(C(=O)NC2CCCC2)c(=O)n1-c1cccc(C(F)(F)F)c1 [Example 56, 5-[2-(2-Bromo-4-cyano-phenyl)-2H-pyrazol-3-yl]-4-methyl-2-oxo-3-(3-trifluoromethyl-phenyl)-2,3-dihydro-imidazole-1-carboxylic acid cyclopentylamide]
9 | 10 to 50 | Cc1c(-c2ccn(-c3ccc(C#N)cc3Br)n2)n(C(=O)NC2CCCC2)c(=O)n1-c1cccc(C(F)(F)F)c1 [Example 57, 5-[1-(2-Bromo-4-cyano-phenyl)-1H-pyrazol-3-yl]-4-methyl-2-oxo-3-(3-trifluoromethyl-phenyl)-2,3-dihydro-imidazole-1-carboxylic acid cyclopentylamide]
10 | < 1 | Cc1c(-c2ccnn2-c2ccc(C#N)cc2F)n(C(=O)NC2CCCC2)c(=O)n1-c1cccc(C(F)(F)F)c1 [Example 58, 5-[2-(4-Cyano-2-fluoro-phenyl)-2H-pyrazol-3-yl]-4-methyl-2-oxo-3-(3-trifluoromethyl-phenyl)-2,3-dihydro-imidazole-1-carboxylic acid cyclopentylamide]
11 | 10 to 50 | Cc1c(-c2nccn2-c2ccc(C#N)cc2)[nH]c(=O)n1-c1cccc(C(F)(F)F)c1 [Example 59, 4-[5′-Methyl-2′-oxo-1′-(3-trifluoromethyl-phenyl)-2′,3′-dihydro-1′H-[2,4]biimidazolyl-1-yl]-benzonitrile]
12 | < 1 | Cc1c(-c2nccn2-c2ccc(C#N)cc2)n(C(=O)NC2CCCC2)c(=O)n1-c1cccc(C(F)(F)F)c1 [Example 60, 1-(4-Cyano-phenyl)-5′-methyl-2′-oxo-1′-(3-trifluoromethyl-phenyl)-1′,2′-dihydro-1H-[2,4]biimidazolyl-3′-carboxylic acid cyclopentylamide]
13 | < 1 | Cc1c(-c2nccn2-c2ccc(C#N)cc2)n(C(=O)NC2CCC2)c(=O)n1-c1cccc(C(F)(F)F)c1 [Example 61, 1-(4-Cyano-phenyl)-5′-methyl-2′-oxo-1′-(3-trifluoromethyl-phenyl)-1′,2′-dihydro-1H-[2,4′]biimidazolyl-3′-carboxylic acid cyclobutylamide]
14 | < 1 | Cc1c(-c2nccn2-c2ccc(C#N)cc2)n(C(=O)NCc2ccc(S(C)(=O)=O)cc2)c(=O)n1-c1cccc(C(F)(F)F)c1 [Example 62, 1-(4-Cyano-phenyl)-5′-methyl-2′-oxo-1′-(3-trifluoromethyl-phenyl)-1′,2′-dihydro-1H-[2,4′]biimidazolyl-3′-carboxylic acid 4-methanesulfonyl-benzylamide]
15 | < 1 | Cc1c(-c2ncnn2-c2ccc(C#N)cc2)n(C(=O)NC2CCCC2)c(=O)n1-c1cccc(C(F)(F)F)c1 [Example 63, 5-[2-(4-Cyano-phenyl)-2H-[1,2,4]triazol-3-yl]-4-methyl-2-oxo-3-(3-trifluoromethyl-phenyl)-2,3-dihydro-imidazole-1-carboxylic acid cyclopentylamide]
